Test [1] deals with Staphylococcus aureus ATCC 29213. The following applies: Publicly-known data, CLSI(M100-S16)2006 liquid dilution method; cited from earlier work.
Test [2] has the same test system. Nature of the test: Evaluation test for disinfecting effect, broth dilution method CLSI(M7-A7)2006. In kind it is cell-based. Particulars: 37°C, 18 hours. The source says:
(§1) The following test compounds were examined for the disinfecting activities against Pseudomonas aeruginosa, E.. Coli and staphylococcus aureus, according to a broth dilution method of "CLSI(M7-A7)2006" (Clinical and Laboratory Standards Institute, M7-A7, Methods for Dilution Antimicrobial Susceptibility Tests for Bacteria That Grow Aerobically; Approved Standard-Seventh Edition, 2006),
(§2) • Pseudomonas aeruginosa PAO1 • Pseudomonas aeruginosa ATCC 27853 • Escherichia coli ATCC 25922 • Staphylococcus aureus ATCC 29213 • Staphylococcus aureus Methicillin resistant (MRSA) ATCC 43300
(§3) Each of above-mentioned bacteria was inoculated in a TSB culture medium (Bacto TSB Broth, product of BD) for overnight cultivation at 37°C. The culture solution was applied to a TSB agar plate for about a 20-hour cultivation to form colonies. Three to five colonies were taken from the agar plate, and an average colony of them was inoculated in a 4mL TSB culture medium.. The colony was cultivated at 35°C until the number of microorganisms became 1 × 10^8 to 2 x 10^8 CFU/mL. The number of microorganisms with time was found by measuring changes in absorbency at 590nm of culture solution with time. When the turbidity became equivalent to 0.5 McFarland standard, it was determined that the number of microorganisms reached the target level = 1 × 10^8 to 2 × 10^8 CFU/mL.
(§4) The bacillus culture solution thus obtained was diluted 10-fold within 15 minutes, and a 5µL portion was inoculated in each well of an evaluation 96-well microplate. This 96-well microplate was a sterilized 96-well microplate with U-shaped bottoms (Falcon 35-3918: product of BD), and each well was filled with a 100µL portion of MH culture medium (BBL MH Broth: product of BD). Within 15 minutes after inoculation of the bacillus culture solutions, the test compounds were supplied to the well in a manner of 2-fold graded dilution. The cultivation was then carried out at 37°C for 18 hours.
(§5) The MIC was determined as follows. "S (susceptible)" indicates a concentration which caused 80% or more reduction in the diameter of the aggregation deposited in the bottom of the well, compared to when the test liquid is not used. "R (Resistant)" indicates a concentration that caused less than 80% reduction in diameter. The reduction was measured visually.. "I(Intermediate)" indicates a concentration that cannot be measured visually

The test system of test [3] is Escherichia coli ATCC 25922. The description is as above. The class given is cell-based. Particulars: 37°C, 18 hours.
Text: as §1, §2, §3, §4, §5

Test [4] deals with Pseudomonas aeruginosa PAO1. Described as above. In kind it is cell-based. The following applies: 37°C, 18 hours.
Text: as §1, §2, §3, §4, §5

Test [5] deals with Pseudomonas aeruginosa ATCC 27853. The test is described as above. In kind it is cell-based. Particulars: 37°C, 18 hours.
Text: as §1, §2, §3, §4, §5

The test system of test [6] is Staphylococcus aureus Methicillin resistant (MRSA) ATCC 43300. Described as above. In kind it is cell-based. The following applies: R (Resistant): concentration that caused less than 80% reduction in diameter of the aggregation, 37°C, 18 hours, read-out: MIC (µg/mL) R.
Text: as §1, §2, §3, §4, §5

Test [7] concerns Pseudomonas aeruginosa (gfp expression PAO1-strain). Nature of the test: Evaluation test for biofilm formation inhibition effect against Pseudomonas aeruginosa (flow cell system, fluorescence confocal microscope). The class given is cell-based. The following applies: test liquid 100µM; observed up to 84 hours; compared with control test liquid (huge, thick biofilm). As for the experimental part:
With the flow cell system shown in FIG. 1, an inhibitory effect against biofilm formation by Pseudomonas aeruginosa was evaluated for each of the amide compounds produced in Production Examples 1, 3, 5, 6 and 7 (Compounds 1a-1, 1b-1, 1c-1, 1c-2, 1d-1), and for each of Comparative Compounds (Comparative Example) 1 to 3 denoted by the following formulas. [drawing 20] [drawing 21] [drawing 22]
A culture medium bottle (1), a peristaltic pump (2), a glass cell (4) and a waste fluid bottle (5) are connected via a silicon tube (6) so that a culture medium (9) is supplied to the glass cell (4) from the culture medium bottle (1) using the peristaltic pump (2). The system includes an air removal section (3) between the peristaltic pump (2) and a turncock (7a), for removing the entrained air. All instruments in the flow cell system are sterilized using gamma-rays or an autoclave.
As specifically described later, the inhibitory effect against biofilm formation of each of the amide compounds is examined in the following manner.. Bacteria are cultured in a glass cell (4) to grow a biofilm on the inner wall of the cell, and a test liquid containing one of the amide compounds is applied to the biofilm. Then the state of the biofilm is observed to evaluate the inhibitory effect against biofilm formation of the compound using a fluorescence confocal microscope (Leica TCS SP2: product of Leica). […]

Test [8] concerns Porphyromonas gingivalis 381-strain (clinical strain). The experiment in a line: Evaluation test for biofilm formation inhibition effect against periodontitis pathogenic bacteria (flow cell system, HA disks, turbidity). Particulars: for inhibition at 100 µM: Porphyromonas gingivalis, 336 h, read-out: Biofilm Formation Inhibition Rate(%); for Mean OD Value: turbidity at 550 nm of biofilm peeled off HA disks. The class given is cell-based. The method, then:
As with Experiment Example 1, using the flow cell system of FIG. 1, an inhibitory effect against biofilm formation by periodontitis pathogenic bacteria was evaluated for each of the amide compounds produced in Production Examples 1, 3, 5, and 6 (Compounds 1a-1, 1b-1, 1c-1, 1c-2).
Periodontitis pathogenic bacteria Porphyromonas gingivalis 381-strain (clinical strain) was used..
A GAM culture medium containing hemin 5µg/L and menadione 1µg/L was used.
The 381-strain was inoculated in the GAM culture medium, and cultivated until stationary phase (OD550=1.8). Then the culture medium was diluted 20-fold by a fresh GAM culture medium containing the above-mentioned substances.
The test liquid was prepared by dissolving 100µM of each of the Compounds 1a-1, 1b-1, 1c-1, or 1c-2 according to Production Examples 1, 3, 5 and 6 and 100µM of Comparative Compounds 1 and 2 as comparative examples in dimethyl sulfoxide (DMSO), and supplying the resulting DMSO solutions to the above-mentioned bacterial suspensions so that the concentration of each compound becomes 0.1%(v/v).
A DMSO not containing the compound was used as a control test liquid.
The glass cell (4) of the flow cell system (see FIG. 1) was replaced with a stainless cell (3 x 7 x 120mm), and 10 hydroxyapatite (HA) disks (6mm in diameter, 1mm in thickness) were placed in the cell. The HA disks had been subjected to salivary treatment overnight. Each of the test liquids and control test liquids was circulated in the system at a flow rate of 8mL/min for 14 days, Note that the test liquids and the control test liquids were replaced with fresh liquids every two days.
After the cultivation, the HA disks were dipped in 300µL of sterile distilled water, and treated by supersonic wave for 30 minutes at 4°C, The biofilms formed in the HA disks were peeled off and suspended in distilled water. Then, 100µL of the suspension liquid was measured for the turbidity with an absorptiometer (C07500 colorimeter, product of Funakoshi) (measurement wavelength = 550 nm).
A mean OD was found based on the resulting OD values, excluding the minimum and maximum values, Also, a mean value of the turbidities for the Control Test Liquids was found in the same manner as the control mean OD value. A biofilm formation inhibition rate (Inhibition Rate) was found by the following formula. Biofilm Formation Inhibition Rate (%) = […] [formula]

The mark [9] stands for this setting: 100µM, 14 days, relative to control test liquid (Mean Comparison OD Value).

Values after ≈ are worked out from the molar mass of the structure shown. Where two headings read alike, the source gives them in different places.

With `CC[C@H]1OC(=O)[C@H](C)[C@@H](O[C@H]2C[C@@](C)(OC)[C@@H](O)[C@H](C)O2)[C@H](C)[C@@H](O[C@@H]2O[C@H](C)C[C@H](N(C)C)[C@H]2O)[C@](C)(O)C[C@@H](C)CN(C)[C@H](C)[C@@H](O)[C@]1(C)O` [AZM, Azithromycin], the “MIC (µg/mL) from M100-S16” value in test [1] was 0.5 to 2 µg/mL. The MIC in test [2] (ATCC29213, I (Intermediate): concentration that cannot be measured visually, read-out: MIC (µg/mL) I) is 1 µg/mL (≈ 1.34 µM); in test [2] (ATCC29213, R (Resistant): concentration that caused less than 80% reduction in diameter of the aggregation, read-out: MIC (µg/mL) R) it was not above 0.5 µg/mL; in test [2] (ATCC29213, S (susceptible): concentration which caused 80% or more reduction in diameter of the aggregation, read-out: MIC (µg/mL) S), not below 2 µg/mL; in test [3] (ATCC25922, I (Intermediate): concentration that cannot be measured visually, read-out: MIC (µg/mL) I), 4 µg/mL (≈ 5.34 µM); in test [3] (ATCC25922, R (Resistant): concentration that caused less than 80% reduction in diameter of the aggregation, read-out: MIC (µg/mL) R) it was not above 2 µg/mL; in test [3] (ATCC25922, S (susceptible): concentration which caused 80% or more reduction in diameter of the aggregation, read-out: MIC (µg/mL) S), not below 8 µg/mL. Moreover, the MIC in test [4] (PAO1, I (Intermediate): concentration that cannot be measured visually, read-out: MIC (µg/mL) I) is 64 µg/mL (≈ 85.4 µM); in test [4] (PAO1, R (Resistant): concentration that caused less than 80% reduction in diameter of the aggregation, read-out: MIC (µg/mL) R), not above 32 µg/mL; in test [4] (PAO1, S (susceptible): concentration which caused 80% or more reduction in diameter of the aggregation, read-out: MIC (µg/mL) S), not below 128 µg/mL; in test [5] (ATCC27853, I (Intermediate): concentration that cannot be measured visually, read-out: MIC (µg/mL) I) it was 64 µg/mL (≈ 85.4 µM); in test [5] (ATCC27853, R (Resistant): concentration that caused less than 80% reduction in diameter of the aggregation, read-out: MIC (µg/mL) R), not above 32 µg/mL; in test [5] (ATCC27853, S (susceptible): concentration which caused 80% or more reduction in diameter of the aggregation, read-out: MIC (µg/mL) S), not below 128 µg/mL. For the same compound, in test [6], the MIC was not above 1020 µg/mL.

The inhibition is the drop in the measured response relative to a control, in per cent. Regarding `CCCCCCCCCC(=O)CC(=O)Nc1ccccc1O` [Comparative Compound 1], in test [7], the “state of biofilm formation” value is “the huge, thick biofilm was observed as in the control test”. In test [8] (setting [9]), the inhibition at 100 µM was -36%.

As for `CCCCCCCCCCCC(=O)NC1CCNC1` (stereo not shown) [Compound 1a-1, N-(pyrrolidin-3-yl) dodecanoyl amide], the “Mean OD Value” in test [8] (100µM, 14 days) turned out to be 0.49. Besides, the inhibition at 100 µM in test [8] amounted to 37.4%.

Turning to `CCCCCCCCCCCC(=O)NC1CCNCC1` [Compound 1b-1, N-(piperidin-4-yl) dodecanoyl amide], the “Mean OD Value” in test [8] (100µM, 14 days) came out at 0.32. Moreover, the inhibition at 100 µM in test [8] turned out to be 19.1%.

Turning to `CCCCCCCCCCCC(=O)NN1CCCC1` [Compound 1c-1, N-(pyrrolidin-1-yl) dodecanoyl amide], the “Mean OD Value” in test [8] (100µM, 14 days) is recorded as 0.522. In test [8] (setting [9]), the inhibition at 100 µM is 11%.

`CCCCCCCCCC(O)CC(=O)NN1CCCC1` (stereo not shown) [Compound 1c-2, N-(pyrrolidin-1-yl)-3-hydroxy dodecanoyl amide]: the “Mean OD Value” in test [8] (100µM, 14 days) was found to be 0.041. Further, the inhibition at 100 µM in test [8] (setting [9]) was determined as 87.8%.

Consider `CCCCCCCCCCCC(=O)NN1CCCCC1` [Compound 1d-1, N-(piperidin-1-yl) dodecanoyl amide], for which, in test [7], the “state of biofilm formation” value is on record as “such biofilm formation was not observed”.

Source of the values: patent publication EP2077260B1, “AMIDE COMPOUND OR SALT THEREOF, AND BIOFILM FORMATION INHIBITOR, BIOFILM REMOVER AND BACTERICIDE EACH USING THE AMIDE COMPOUND OR SALT THEREOF” (The University of Tokyo, priority 2006, dated 2008).
